{"source": "patent US20100099762A1", "about": "“COMBINATION THERAPY” (THE MENTAL HEALTH RESEARCH INSTITUTE OF VICTORIA, priority 2006, published 2010)", "test_system": "total glutathione levels", "assay": "Total glutathione in striatum and liver of rats after CHX depletion", "format": "in vivo, Sprague-Dawley rats", "settings": "CHX 75 mg/kg i.p.", "description": "Male Sprague-Dawley rats aged nine weeks and weighing an average of 390 g, were used in the study. Animals were maintained on a twelve hour light-dark cycle with water and food ad libitum. Two animals were housed per cage with room temperature maintained at 22° C.\nAll pharmacological agents were administered by intraperitoneal injection (i.p.) in a volume of 1 ml/kg, except where otherwise stated. All agents were prepared using saline as a diluent. Brain GSH depletion was performed using cyclohexene-1-one (CHX), administered at 75 mg/kg. Animals were returned to their cage for 90 minutes prior to administration of N-acetyl cysteine (NAC) or N-acetyl cysteine amide (NACA or “AD4”). Animals were killed by decapitation 1 hour after NACA or NAC treatment.\nFrontal cortex, striatum and liver samples were immediately excised on ice, weighed and sonicated in SSA buffer (5% sulfosalicylic acid in 100 mM disodium hydrogen orthophosphate, 100 mM sodium dihydrogen orthophosphate and 1 mM EDTA, pH 7.5, 5 mL/g wet tissue). The samples were subsequently centrifuged (22×10^3 g for 10 minutes, 4° C.) and the […] was taken and frozen at −80° C. until analysed.\nTotal glutathione levels (μmol GSH/gram tissue) were determined in all samples. Samples were assayed according to Baker et al. (1990). Reduced glutathione standards ranging from 0 to 320 ρmol of GSH in 50 μL were prepared in a background buffer identical to the samples (SSA buffer) and then treated in parallel with samples. 50 μl of sample or standard was placed on a 96-well microtiter plate with 100 μL of assay reagent (final concentration in well; 0.15 mM DTNB, 0.2 mM NADPH, 1.0 U glutathione reductase/mL). Plates were assayed for a total of 2 minutes at 414 nm using a Multiskan MCC/340 MK II plate reader and Genesis V3.05 computer software. All chemicals were purchased from Sigma-Aldrich. Statistical evaluation of the data was conducted using analysis of variance (ANOVA).", "note": "Entries after “also recorded” stand apart in the source; their conditions may differ."}
{"smiles": "O=C1C=CCCC1", "note": "[CHX, cyclohexene-1-one]", "values": [{"measurement": "Total glutathione levels in the brain striatum", "value": "significant decrease; also recorded: depleted"}, {"measurement": "Total glutathione levels in the liver", "value": "significant decrease; also recorded: depleted"}]}
